Key:
Type in all cases: cell-based
[1] = test system: S. aureus ATCC 6538; test: Suspension test EN 1040, bactericidal activity; conditions: 1000 ppm of active substance
Procedure: (§1) The bactericidal activity of the substances of this invention was carried out in a suspension test corresponding to the European standard EN 1040 and compared with the activities of customary commercial products. For this, only relatively small modifications were made. The substances of the formula (1) were dissolved in water or ethanol to give a 1% strength stock solution. For determining the bactericidal activities, the test mixtures were selected such that 1000 ppm of active substance was present in an aqueous solution. The procedure was the same with the comparison samples. For the results shown in table 2, the test mixtures were inoculated with the following bacterial strains such that the stated germ densities were present in the test mixtures. S. aureus ATCC 6538 1−2×10^7 CFU/ml The test mixtures were incubated at room temperature (22° C.+/−2° C.). After defined contact times, aliquots of 1 ml were taken in order to determine the surviving germ count. For the deactivation of the microbicidal activity of the diols, the aliquots were diluted in 1:10 dilution steps in a solution of TS broth with 10% Tween, 3% lecithin, 0.1% histidines and 0.5% sodium thiosulfate and the 10^−2 and 10^−3 dilution stages were used for determining the surviving germ count. For this purpose, corresponding aliquots were plated out on Caso medium with inhibitor (Merck) and incubated at 37° C. for 24 h. The ascertained surviving germ counts were in each case compared with a mixture containing water (water control) by determining the logarithmic reduction in the surviving germ counts based on the water control.

[2] = test system: P. aeruginosa ATCC 15442; test: Suspension test EN 1040, bactericidal activity; conditions: 1000 ppm of active substance
Procedure: as §1, with “P. aeruginosa” for “S. aureus”, “15442” for “6538”

[3] = test system: E. coli ATCC 10536; test: Preservation stress test, example formulation 1 (standard emulsion O/W); conditions: 1% active substance
Procedure, shortened: (§2)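 O/W emulsion containing 1% diol (water as placebo), inoculated individually or as mixed culture at 10^5-10^6 CFU/g and held 28 d at 20-25° C. Surviving counts at 0, 2, 7, 14 and 28 d after dilution in neutralising phosphate buffer pH 7.4 with Tween 80/lecithin; expressed as log reduction from initial count.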

[4] = test system: P. aeruginosa ATCC 15442; test: as above; conditions: 1% active substance
Procedure, shortened: as §2

[5] = test system: S. aureus ATCC 6538; test: as above; conditions: 1% active substance
Procedure, shortened: as §2

[6] = test system: C. albicans ATCC 10231; test: Suspension test EN 1275, activity against yeasts; conditions: 1000 ppm of active substance
Procedure: The fungicidal activity was determined in accordance with European standard EN 1275 and compared with the activities of customary commercial products, with only slight modifications having been carried out. The substances of the formula (1) were dissolved in water or ethanol to give a 1% strength stock solution. To determine the microbicidal activities of the diols against yeasts, the test mixtures were selected such that 1000 ppm of active substance was present in an aqueous solution. For the results shown in table 2, the test mixtures were inoculated with the following yeast and mold strains such that the stated germ densities were present in the test mixtures. C. albicans ATCC 10231 1−2×10^6 CFU/ml The test mixtures were incubated at room temperature (22° C.+/−2° C.). After defined contact times, aliquots of 1 ml were taken in order to determine the surviving germ count. For the deactivation of the microbicidal activity of the diols, the aliquots were diluted in 1:10 dilution steps in a solution of Sabouraud medium with 10% Tween, 3% lecithin, 0.1% histidines and 0.5% sodium thiosulfate and the 10^−2, 10^−3 and 10^−4 dilution stages were used for determining the surviving germ count. For this, corresponding aliquots were plated out on Sabouraud medium with inhibitor and incubated at 30° C. for 2 d. The ascertained surviving germ counts were in each case compared with a mixture containing water (water control) by determining the logarithmic reduction in the surviving germ counts based on the water control.

Compound: CCCC(O)CO (centres unmarked) [1,2-Pentanediol, 1,2-pentanediol, reference compound]
- Microbicidal activity given as logarithmic reduction in germ count ([1]; contact time 5 min): <1 log. red.
- Microbicidal activity given as logarithmic reduction in germ count ([1]; contact time 30 min): <1 log. red.
- Microbicidal activity given as logarithmic reduction in germ count ([1]; contact time 24 h): <1 log. red.
- Microbicidal activity given as logarithmic reduction in germ count ([2]; contact time 5 min): <1 log. red.
- Microbicidal activity given as logarithmic reduction in germ count ([3]; 48 h): 0 log. Red.
- Microbicidal activity given as logarithmic reduction in germ count ([3]; 7 d): 0 log. Red.
- Microbicidal activity given as logarithmic reduction in germ count ([3]; 14 d): 0 log. Red.
- Microbicidal activity given as logarithmic reduction in germ count ([4]; 48 h): 0 log. Red.
- Microbicidal activity given as logarithmic reduction in germ count ([4]; 7 d): ≧3 log. Red.
- Microbicidal activity given as logarithmic reduction in germ count ([4]; 14 d): ≧3 log. Red.
- Microbicidal activity given as logarithmic reduction in germ count ([5]; 48 h): 0 log. Red.
- Microbicidal activity given as logarithmic reduction in germ count ([5]; 7 d): 0 log. Red.
- Microbicidal activity given as logarithmic reduction in germ count ([5]; 14 d): 0 log. Red.

Compound: CCCCCCCCC(C)(CO)CO [OMPD, 2-octyl-2-methylpropane-1,3-diol]
- Microbicidal activity given as logarithmic reduction in germ count ([1]; contact time 5 min): <1 log. red.
- Microbicidal activity given as logarithmic reduction in germ count ([1]; contact time 30 min): 4.8 log. red.
- Microbicidal activity given as logarithmic reduction in germ count ([1]; contact time 24 h): >5 log. red.
- Microbicidal activity given as logarithmic reduction in germ count ([2]; contact time 5 min): 4.5 log. red.
- Microbicidal activity given as logarithmic reduction in germ count ([2]; contact time 30 min): 4.7 log. red.
- Microbicidal activity given as logarithmic reduction in germ count ([6]; contact time 5 min): >4 log. red.
- Microbicidal activity given as logarithmic reduction in germ count ([6]; contact time 30 min): >4 log. red.
- Microbicidal activity given as logarithmic reduction in germ count ([6]; contact time 24 h): >4 log. red.

Compound: CCCCCC(CO)(CO)CCC [PPPD, 2-pentyl-2-propylpropane-1,3-diol]
- Microbicidal activity given as logarithmic reduction in germ count ([1]; contact time 5 min): <1 log. red.
- Microbicidal activity given as logarithmic reduction in germ count ([1]; contact time 30 min): 1.5 log. red.
- Microbicidal activity given as logarithmic reduction in germ count ([1]; contact time 24 h): >5 log. red.
- Microbicidal activity given as logarithmic reduction in germ count ([2]; contact time 5 min): 3.2 log. red.
- Microbicidal activity given as logarithmic reduction in germ count ([2]; contact time 30 min): 3.1 log. red.
- Microbicidal activity given as logarithmic reduction in germ count ([6]; contact time 5 min): 1.7 log. red.
- Microbicidal activity given as logarithmic reduction in germ count ([6]; contact time 30 min): >5 log. red.
- Microbicidal activity given as logarithmic reduction in germ count ([6]; contact time 24 h): >5 log. red.
